Test system: GBS laboratory strains and clinical isolates
Assay: Microbroth (96-well) penicillin tolerance assay
Type: cell-based, Group B Streptococcus
Details: for Penicillin Phenotypes: 48 hr penicillin, 24 hr drug free culture; for replication or viability after re-plate and additional 24-hour culture (FIG. 1): penicillin G 1× to 256×MIC90 48 hours
Protocol: An in vitro method involving microbroth (96-well) culture was used to develop a penicillin tolerance assay. In this assay, the inventors tested three laboratory bacterial strains (i.e., GBS strains A909, NEM316, and O90R). These cells were commercially obtained from ATCC source. Bacterial cells were cultured overnight for 18 hours at 37° C. in Todd-Hewitt Broth (THB). Subcultures in THB were subsequently grown to exponential phase (OD600˜0.3) at 37° C. Cell cultures were then exposed to different concentrations of penicillin G (Sigma, St. Louis, Mo.). […] Cell cultures were dispersed. A dilution (i.e., 1 to 20) of cells was re-plated into new wells containing fresh THB with 500 U Penase (to destroy residual penicillin). Cell cultures were allowed to grow for an additional 24 hours at 37° C. Assays were repeated four (4) times and standard bar represents standard deviations.
Using this established 96-well assay (i.e., microbroth assay), 115 clinical isolates of GBS were further tested. These were cervico-vaginal rectal clinical isolates (obtained from pregnant humans), and characterized their penicillin tolerance. The phenotype definitions (above) were used to identify the penicillin tolerant isolates.
(I) Bacterial Strains and Culture Conditions. GBS strains A909 (serotype IA), 515 (serotype IA), NEM316 (serotype III), COHI (serotype III), 2603V/R (serotype V) and O90R (non-typable) were used in this study. E. coli Top10 cells were used for the recombination experiments. GBS was cultured in Todd Hewitt broth (THB) or Tryptic Soy 5% sheep blood (TS) media and E. coli in Luria-broth (LB) medium or agar. Antibiotics were used at the following concentrations: for GBS—penicillin G (MIC90 0.06 μg ml^−1), ampicillin (MIC90 0.12 μg ml^−1), vancomycin (MIC90 2 μg ml^−1), cefazolin (MIC90 1 μg ml^−1) and chloramphenicol (5 μg ml^−1); for E. coli—ampicillin (50 μg ml^−1) and chloramphenicol (5 μg ml^−1). Both GBS and E. coli cultures were grown at 37° C. (II) Tolerance Using the MBC:MIC Ratio Method. Three GBS laboratory strains (i.e., A909, NEM316, and O90R) were cultured overnight for 18 h at 37° C. in THB. Subcultures in THB were subsequently grown to exponential phase (OD600˜0.3; i.e. 5×10^5 cfu/ml) at 37° C. Cell cultures were then exposed to different concentrations of antibiotics (Penicillin G, Ampicillin, Cefozolin or Vancomycin). […] Cell cultures were dispersed every 18 h before OD600 was measured to determine the lowest concentration of antibiotic with 90% growth inhibition (MIC90). Antibiotic treated cells (8 μl) from each well were re-suspended into PBS (100 μl) and plated (54 μl) on TS agar plates and allowed to grow for an additional 24 h at 37° C. Cell count was performed to determine the lowest concentration of antibiotic with 90% killing of original inoculums (MBC90). (III) Penicillin Killing and Regrowth Tolerance Assay by Microbroth Dilution. Three GBS laboratory strains (i.e., A909, NEM316, and O90R) were cultured overnight for 18 h at 37° C. in THB. Subcultures in THB were subsequently grown to exponential phase (OD600˜0.3) at 37° C. Cell cultures were then exposed to different concentrations of Penicillin G (Sigma, St. Louis, Mo.). […] Cell cultures were dispersed. A 1:20 dilution of cells was re-plated into new wells containing fresh THB with 500 U Penase (to degrade residual penicillin). Cell cultures were allowed to re-grow for an additional 24 h at 37° C. before the OD600 was measured. (IV) Measuring Cell Viability by Determining ATP Concentration. GBS strains were cultured for 18 h at 37° C. in THB. These cells were inoculated into fresh THB and subsequently allowed to grow to exponential phase (OD600 0.25-0.3) at 37° C. One ml of each culture was centrifuged at 5,000×g for 4 min. The cell pellet was re-suspended in ATP-free water. Cellular ATP was extracted using trichloroacetic acid (TCA) (5%) for 2 min and subsequently neutralized with Tris-EDTA-0.1M NaOAc, pH 7.75 to 10×TCA volume. […]

CC1(C)S[C@@H]2[C@H](NC(=O)Cc3ccccc3)C(=O)N2[C@H]1C(=O)O [Penicillin G]
% GBS Clinical Strains, Intermediate (115 clinical isolates): 8% | % GBS Clinical Strains, Paradoxical Effect-Penicillin Tolerance (PE-PT) (115 clinical isolates): 27% | % GBS Clinical Strains, Penicillin Tolerance (PT) (115 clinical isolates): 16% | % GBS Clinical Strains, Susceptible (S) (115 clinical isolates): 49% | Penicillin Phenotypes (GBS laboratory strain A909): Susceptible (S) | Penicillin Phenotypes (GBS laboratory strain NEM316): Paradoxical Effect-Penicillin Tolerance (PE-PT) | Penicillin Phenotypes (GBS laboratory strain O90R): Penicillin Tolerance (PT) | replication or viability after re-plate and additional 24-hour culture (FIG. 1) (GBS strain A909): did not replicate | replication or viability after re-plate and additional 24-hour culture (FIG. 1) (GBS strain NEM316, viability lost at 16× to 64×MIC90): paradoxical effect | replication or viability after re-plate and additional 24-hour culture (FIG. 1) (GBS strain O90R): did not inhibit the replication or viability

— US8247170B2, “Detection of penicillin tolerance in Group B Streptococcus: single nucleotide polymorphisms in penicillin binding protein 4” (priority 2008, dated 2012)
